The numbers were not newly measured in PMC8273902 (Drug Design, Development and Therapy, 2021), which cites them from elsewhere.

Where two headings read alike, the source gives them in different places.

The conditions of this data set: humans.

For the compound `CCCc1nn(C)c2c(=O)[nH]c(-c3cc(S(=O)(=O)N4CCN(C)CC4)ccc3OCC)nc12` [Sildenafil, sildenafil], the Tmax is recorded as 1 (0.5–2) h; the Vd/F (as a rule, the volume of distribution divided by bioavailability) is given as greater than 310 L; the t1/2 was 3 to 5 h. Under “100 mg”, the AUC0-t is given as 1685 (100 mg) h·ng/mL and the Cmax was 560 (100 mg) ng/mL. Moreover, the CL (CL, 50 mg, intravenous) was 41 (CL, 50 mg, intravenous) L/h. Besides, the “Food effect: reduction of AUC (systemic exposure)” value (high-fat meal) is recorded as 11%.

Turning to `CN1CC(=O)N2[C@H](c3ccc4c(c3)OCO4)c3[nH]c4ccccc4c3C[C@@H]2C1=O` [Tadalafil, tadalafil], the Dose linearity entry is on record as “Linear”, the “Food effect on PK properties” value is “No significant effect”, the Tmax is 2 (0.5–6) h and the Vd/F was 60 to 70 L. Where the note is “20 mg”, the AUC0-t was 8066 (20 mg) h·ng/mL, the CL/F was 2.5 (20 mg) L/h and the Cmax is reported as 378 (20 mg) ng/mL. The “Food effect on PK properties” value (listed as tadalafil) is on record as “not affected by food”.
